What all share (format): cell-based, human
Assay [1] deals with MCF7 cells. As to the kind of experiment: Intracellular localization of FITC compounds, fluorescence microscope, MCF7 cells. The method, then: After compounds having FITC were added to the cells adhering on a glass coverslip, the cells were cultured, washed with PBS, fixed with 3.7% formaldehyde for 10 minutes, and washed with PBS twice.
The next assay deals with hTERT RPE-1 cells. As to the kind of experiment: Protein acetylation levels in treated hTERT RPE-1 normal cells, western blotting. Conditions: FIG. 6 comparison. The method, then: (§1) The cell fractionation was carried out as follows. Approximately 10^6 cells were detached from a culture dish by a trypsin treatment. After washed with PBS, the cell pellets were suspended in a cooled, cell lysis buffer [50 mM Tris (pH=7.5), 300 mM NaCl, 0.3% Triton X-100, protease inhibitor cocktail, and 1 mM PMSF], and placed on ice for 30 minutes. After the centrifugation (4° C., 1500 rpm, 2 minutes), the supernatant was collected as a cytoplasm fraction. Meanwhile, the pellets were suspended in a cell lysis buffer containing 2 mM MgCl2 and Benzonase (Novagen, 71206), and placed on ice for 30 minutes. Then, 4 mM EDTA was added thereto to stop the reaction. After the centrifugation (4° C., 15000 rpm, 15 minutes), the supernatant was collected as a chromosome fraction.
(§2) Proteins were separated on a 4-20% SDS-PAGE gel, and transferred to a PVDF membrane, followed by blocking with 5% skim milk suspended in TBST for the reaction between the PVDF membrane and primary antibodies. The primary antibodies used were as follows. Anti-Histone H3 (acetyl K122) antibody (ab33309, Abcam), Acetylated-Lysine antibody (#9441, Cell Signaling), Anti-Histone H3 (acetyl K56) antibody (ab76307, Abcam), Anti-acetyl Histone H3 (Lys115) (#07-934, Millipore), Anti-P53 (DO-1) (sc-126, Santa cruz), Anti-Histone H3 (acetyl K9) antibody (ab4441, Abcam), Anti-Histone H3 (acetyl K14) antibody (ab52946, Abcam), Anti-Acetyl-Histone H4 (Ac-Lys16) (H9164, Sigma), Anti-Acetyl-Histone H4 (Ac-Lys5) (SAB4500307, Sigma), anti-acetyl tubulin (T6793, Sigma), Anti-p21/WAF1/Cip1 Antibody (05-655, Millipore), Anti-p27 (Kip1) (04-240, Millipore). After washing with TBST, the PVDF membrane was treated with a chemilluminescent detection reagent Luminata Forte Western HRP Substrate (Millipore), and the detection was performed using ImageQuant LAS 4000 (GE healthcare life sciences).
MCF7 cells, HeLa cells, and hTERT RPE-1 (hereinafter, RPE-1) cells which are normal cells were treated with an HDAC inhibitor (SAHA). […] On the other hand, there was no change in the acetylation of K56 present in the H3 globular region (FIG. 6).
On the technique in general: A western blot detects proteins with antibodies after separation by electrophoresis.

The subject of assay [2] is MCF7 cells. As to the kind of experiment: Protein acetylation levels in treated MCF7 cells (chromosome and cytoplasm fractions), western blotting. To be noted: FIG. 6 comparison. As for the experimental part: (§3) Hela cells and MCF7 cells were cultured using Dulbecco's modified Eagle's Medium (DMEM) media supplemented with 10% fetal bovine serum, 100 U/ml of penicillin, and 100 U/ml of streptomycin. The cells were cultured at 37° C. in the presence of 5% CO2.
as §1
as §2, with “After washing with TBST, the PVDF membrane was treated with a chemilluminescent detection reagent Luminata Forte Western HRP Substrate (Millipore), and the detection was performed using ImageQuant LAS 4000 (GE healthcare life sciences).” left out

Another assay concerns Hela cells. Description: Protein acetylation levels in treated HeLa cells (chromosome and cytoplasm fractions), western blotting. Conditions: FIG. 6 comparison. The method, then: as §3, §1
as §2, with “After washing with TBST, the PVDF membrane was treated with a chemilluminescent detection reagent Luminata Forte Western HRP Substrate (Millipore), and the detection was performed using ImageQuant LAS 4000 (GE healthcare life sciences).” left out

Structures are written as SMILES.

Consider `CC(=O)N(OCc1cn(CCOCCOCCOc2cc(C(=O)NCC(=O)N[C@@H](CCCNC(=N)N)C(=O)NC(CCCNC(=N)N)C(=O)N[C@@H](CCCNC(=N)N)C(=O)NC(CCCNC(=N)N)C(=O)N[C@@H](CCCNC(=N)N)C(=O)NC(CCCNC(=N)N)C(=O)N[C@@H](CCCNC(=N)N)C(=O)NC(CCCNC(=N)N)C(N)=O)cc(OCCOCCOCCn3cc(CON(C(C)=O)C(C)=O)nn3)c2OCCOCCOCCn2cc(CON(C(C)=O)C(C)=O)nn2)nn1)C(C)=O` (stereo partly shown) [Compound 3NMD-8R], for which, in the assay on MCF7 cells [1], the “intracellular localization (FITC signal)” value is “successfully localized in the nucleus and the chromosomes”.

In the case of `O=C(CCCCCCC(=O)Nc1ccccc1)NO` [SAHA], the “acetylation of K56, H3 globular region” value with hTERT RPE-1 cells, in the assay with MCF7 cells [2] and in the assay on Hela cells was “no change” each time. Further, the “acetylations of lysines in the tail regions of histones H3 and H4” value in the assay with hTERT RPE-1 cells, with MCF7 cells [2] and with Hela cells was “significantly enhanced” in each case. Further, the “tubulin acetylation in the cytoplasm” value in the assay with hTERT RPE-1 cells, with MCF7 cells [2] and in the assay on Hela cells was “significantly enhanced” throughout.

(Values after patent US20170008927A1, “ARTIFICIAL CATALYST SYSTEM SUBSTITUTABLE FOR IN VIVO ACYLATION FUNCTION” (The University of Tokyo, priority 2014, published 2017).)
